Source: PubChem BioAssay AID330 (DTP/NCI, 2004)
Several values for one entry are separate records, joined by “and”; a condition that tells them apart may be missing. Equal entries are not always repeated. Toxic doses and inconclusive results are not listed.

System: P388 leukemia ip, CD2F1 mice, survival T/C
Assay: NCI In Vivo Anticancer Drug Screen. Data for tumor model P388 Leukemia (intraperitoneal) in CD2F1 (CDF1) mice
Settings: endpoint: median survival time, higher = longer survival
Procedure, shortened: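 Mice carrying the transplanted tumor received test compound or vehicle. Survival was recorded in each group, and the value is the treated-group measurement divided by that of the vehicle-treated control group.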

[1] = dose: 50.0 mg/kg/injection, schedule: Q01DX005 (ip), vehicle: Klucel (hydroxypropylcellulose) (HPC)
[2] = dose: 100.0 mg/kg/injection, schedule: Q01DX005 (ip), vehicle: Klucel (hydroxypropylcellulose) (HPC)
[3] = dose: 200.0 mg/kg/injection, schedule: Q01DX005 (ip), vehicle: Klucel (hydroxypropylcellulose) (HPC)
[4] = dose: 50.0 mg/kg/injection, schedule: Q01DX009 (ip), vehicle: Klucel (hydroxypropylcellulose) (HPC)
[5] = dose: 100.0 mg/kg/injection, schedule: Q01DX009 (ip), vehicle: Klucel (hydroxypropylcellulose) (HPC)
[6] = dose: 200.0 mg/kg/injection, schedule: Q01DX009 (ip), vehicle: Klucel (hydroxypropylcellulose) (HPC)
[7] = dose: 50.0 mg/kg/injection, schedule: Q01DX009 (ip), vehicle: saline with Tween-80
[8] = dose: 100.0 mg/kg/injection, schedule: Q01DX009 (ip), vehicle: saline with Tween-80
[9] = dose: 200.0 mg/kg/injection, schedule: Q01DX009 (ip), vehicle: saline with Tween-80
[10] = dose: 100.0 mg/kg/injection, schedule: Q04DX003 (ip), vehicle: saline with Tween-80
[11] = dose: 200.0 mg/kg/injection, schedule: Q04DX003 (ip), vehicle: saline with Tween-80
[12] = dose: 400.0 mg/kg/injection, schedule: Q04DX003 (ip), vehicle: saline with Tween-80
[13] = dose: 60.0 mg/kg/injection, schedule: Q01DX005 (ip), vehicle: saline with Tween-80
[14] = dose: 120.0 mg/kg/injection, schedule: Q01DX005 (ip), vehicle: saline with Tween-80
[15] = dose: 240.0 mg/kg/injection, schedule: Q01DX005 (ip), vehicle: saline with Tween-80
[16] = dose: 400.0 mg/kg/injection, schedule: Q01DX009 (ip), vehicle: saline with Tween-80

CC(C)(C)NC(=O)OCc1c(COC(=O)NC(C)(C)C)c(-c2ccc(Cl)c(Cl)c2)n2c1CCC2
T/C (dose: 6.25 mg/kg/injection, schedule: Q01DX009 (ip), vehicle: distilled water + Tween-80): 123 % of control | T/C (dose: 12.5 mg/kg/injection, schedule: Q01DX009 (ip), vehicle: distilled water + Tween-80): 124 % of control | T/C (dose: 50.0 mg/kg/injection, schedule: Q01DX009 (ip), vehicle: distilled water + Tween-80): 158 % of control and 164 % of control | T/C (dose: 100.0 mg/kg/injection, schedule: Q01DX009 (ip), vehicle: distilled water + Tween-80): 164 % of control and 167 % of control | T/C (dose: 200.0 mg/kg/injection, schedule: Q01DX009 (ip), vehicle: distilled water + Tween-80): 172 % of control | T/C (dose: 400.0 mg/kg/injection, schedule: Q01DX009 (ip), vehicle: distilled water + Tween-80): 117 % of control

CC(=O)O[B-]1(OC(C)=O)Oc2c3ccccc3c3c4c(ccc(c24)=[O+]1)O[B-](OC(C)=O)(OC(C)=O)[O+]=3
T/C (dose: 50.0 mg/kg/injection, schedule: Q01DX005 (ip), vehicle: Klucel + Tween-80): 94 % of control | T/C (dose: 100.0 mg/kg/injection, schedule: Q01DX005 (ip), vehicle: Klucel + Tween-80): 89 % of control | T/C (dose: 200.0 mg/kg/injection, schedule: Q01DX005 (ip), vehicle: Klucel + Tween-80): 93 % of control

CCCCCCCCCCCCC(C(=O)O)C(C)C(=O)O (stereo not drawn)
T/C (dose: 0.25 mg/kg/injection, schedule: Q01DX009 (ip), vehicle: saline with Tween-80): 96 % of control | T/C (dose: 0.5 mg/kg/injection, schedule: Q01DX009 (ip), vehicle: saline with Tween-80): 102 % of control | T/C (dose: 1.0 mg/kg/injection, schedule: Q01DX009 (ip), vehicle: saline with Tween-80): 104 % of control

COc1ccccc1[B-]12OCC[N+]1(CNC(=O)C1=C(O)C3(O)C(=O)C4=C(O)c5c(O)cccc5C(C)(O)C4CC3C(N(C)C)C1=O)CCO2 (stereo not drawn)
T/C [1]: 105 % of control | T/C [2]: 108 % of control | T/C [3]: 112 % of control

CC1NC(=O)N(C2CCCCCCC2)C1=O (stereo not drawn)
T/C [1]: 102 % of control | T/C [2]: 114 % of control | T/C [3]: 102 % of control

CCCCCCOc1ccc(C(=O)Oc2ccc(OC(=O)c3ccc(N)cc3)cc2)cc1
T/C [4]: 102 % of control | T/C [5]: 100 % of control | T/C [6]: 100 % of control

CC(=O)Nc1ccc(NC(=S)NC(=O)c2ccccc2)cc1
T/C [7]: 107 % of control | T/C [8]: 100 % of control | T/C [9]: 95 % of control

CCN(CC)C1CS(=O)(=O)OC2=C1CSCC2 (stereo not drawn)
T/C [10]: 102 % of control | T/C [11]: 100 % of control | T/C [12]: 95 % of control

CCN(CCCNc1cc(OC)cc2cccnc12)C(C)C
T/C (dose: 3.12 mg/kg/injection, schedule: Q01DX005 (ip), vehicle: saline): 98 % of control | T/C (dose: 6.25 mg/kg/injection, schedule: Q01DX005 (ip), vehicle: saline): 92 % of control | T/C (dose: 12.5 mg/kg/injection, schedule: Q01DX005 (ip), vehicle: saline): 107 % of control

CN(C)CC1=c2ccccc2=N/C1=C\c1ccc(N(C)C)cc1
T/C (dose: 100.0 mg/kg/injection, schedule: Q01DX001 (ip), vehicle: saline with Tween-80): 89 % of control | T/C (dose: 200.0 mg/kg/injection, schedule: Q01DX001 (ip), vehicle: saline with Tween-80): 88 % of control | T/C (dose: 400.0 mg/kg/injection, schedule: Q01DX001 (ip), vehicle: saline with Tween-80): 92 % of control

c1ccc2c(c1)CCc1ccccc1C2NC1=NCCO1
T/C (dose: 12.5 mg/kg/injection, schedule: Q04DX003 (ip), vehicle: saline with Tween-80): 90 % of control | T/C (dose: 25.0 mg/kg/injection, schedule: Q04DX003 (ip), vehicle: saline with Tween-80): 90 % of control | T/C (dose: 50.0 mg/kg/injection, schedule: Q04DX003 (ip), vehicle: saline with Tween-80): 86 % of control

Nc1ccc(-c2ccc(N=C(/C=N/O)NO)cc2)cc1
T/C [1]: 102 % of control | T/C [2]: 100 % of control | T/C [3]: 94 % of control

CSC1=NS(=O)(=O)c2ccccc21
T/C (dose: 50.0 mg/kg/injection, schedule: Q01DX005 (ip), vehicle: saline with Tween-80): 96 % of control | T/C (dose: 100.0 mg/kg/injection, schedule: Q01DX005 (ip), vehicle: saline with Tween-80): 96 % of control | T/C (dose: 200.0 mg/kg/injection, schedule: Q01DX005 (ip), vehicle: saline with Tween-80): 103 % of control

Nc1cc(=O)n(Cc2ccccc2)c(N)c1C(=O)NCc1ccccc1
T/C [13]: 106 % of control | T/C [14]: 98 % of control | T/C [15]: 100 % of control

O=C(/C=C/c1ccc([N+](=O)[O-])cc1)NN=C(c1ccccc1)c1ccccc1
T/C [7]: 106 % of control and 96 % of control | T/C [8]: 99 % of control and 91 % of control | T/C [9]: 98 % of control | T/C [16]: 99 % of control

O=C1CC2c3c(OCc4ccccc4)cc(OCc4ccccc4)cc3OC2O1 (stereo not drawn)
T/C (dose: 8.75 mg/kg/injection, schedule: Q01DX005 (ip), vehicle: Klucel (hydroxypropylcellulose) (HPC)): 88 % of control | T/C (dose: 17.5 mg/kg/injection, schedule: Q01DX005 (ip), vehicle: Klucel (hydroxypropylcellulose) (HPC)): 91 % of control | T/C (dose: 35.0 mg/kg/injection, schedule: Q01DX005 (ip), vehicle: Klucel (hydroxypropylcellulose) (HPC)): 88 % of control

Cc1ccc2c(c1)c(N=NC(N)=S)c(O)n2C1OC(CO)C(O)C(O)C1O (stereo not drawn)
T/C (dose: 32.0 mg/kg/injection, schedule: Q01DX009 (ip), vehicle: saline with Tween-80): 102 % of control | T/C (dose: 64.0 mg/kg/injection, schedule: Q01DX009 (ip), vehicle: saline with Tween-80): 95 % of control | T/C (dose: 128.0 mg/kg/injection, schedule: Q01DX009 (ip), vehicle: saline with Tween-80): 98 % of control

CCOC(=O)c1ccc(NC(=O)Oc2cc(C)ccc2C)cc1
T/C (dose: 3.75 mg/kg/injection, schedule: Q01DX005 (ip), vehicle: saline with Tween-80): 93 % of control | T/C (dose: 7.5 mg/kg/injection, schedule: Q01DX005 (ip), vehicle: saline with Tween-80): 90 % of control | T/C (dose: 15.0 mg/kg/injection, schedule: Q01DX005 (ip), vehicle: saline with Tween-80): 90 % of control and 94 % of control | T/C [13]: 94 % of control

O=C(Nc1cccc2ccccc12)[C@H]1C[C@H]2C=C[C@@H]1C2
T/C [10]: 95 % of control | T/C [11]: 90 % of control | T/C [12]: 113 % of control

CSC(=N\N=C\c1c(F)cccc1Cl)/N=C/N(C)C
T/C [13]: 95 % of control | T/C [14]: 101 % of control | T/C [15]: 103 % of control

CN(Cc1ccc([N+](=O)[O-])cc1)C(=O)Nc1ccc(S(=O)(=O)F)cc1
T/C (dose: 60.0 mg/kg/injection, schedule: Q01DX005 (ip), vehicle: Klucel (hydroxypropylcellulose) (HPC)): 110 % of control | T/C (dose: 120.0 mg/kg/injection, schedule: Q01DX005 (ip), vehicle: Klucel (hydroxypropylcellulose) (HPC)): 92 % of control | T/C (dose: 240.0 mg/kg/injection, schedule: Q01DX005 (ip), vehicle: Klucel (hydroxypropylcellulose) (HPC)): 92 % of control

COc1ccc(Cc2nnc(NN)[nH]c2=O)cc1OC
T/C [13]: 101 % of control | T/C [14]: 97 % of control

C[O][Sn]([CH3])([CH3])[O][Sn]([CH3])([CH3])[Cl]
T/C (dose: 6.25 mg/kg/injection, schedule: Q04DX003 (ip), vehicle: saline): 103 % of control and 106 % of control | T/C (dose: 12.5 mg/kg/injection, schedule: Q04DX003 (ip), vehicle: saline): 100 % of control and 101 % of control and 96 % of control | T/C (dose: 25.0 mg/kg/injection, schedule: Q04DX003 (ip), vehicle: saline): 99 % of control and 100 % of control and 109 % of control | T/C (dose: 50.0 mg/kg/injection, schedule: Q04DX003 (ip), vehicle: saline): 102 % of control and 120 % of control and 97 % of control

Oc1ccccc1C=Nc1ccccc1C(F)(F)F
T/C [7]: 101 % of control | T/C [8]: 103 % of control | T/C [9]: 95 % of control | T/C [16]: 97 % of control

CC1=C(C)C(C#N)N(C)CC1 (stereo not drawn)
T/C (dose: 3.75 mg/kg/injection, schedule: Q01DX005 (ip), vehicle: Klucel (hydroxypropylcellulose) (HPC)): 102 % of control | T/C (dose: 7.5 mg/kg/injection, schedule: Q01DX005 (ip), vehicle: Klucel (hydroxypropylcellulose) (HPC)): 100 % of control

CCCCCCCCCCCCCCCC(=O)Nc1ncc([N+](=O)[O-])s1
T/C [4]: 86 % of control | T/C [5]: 96 % of control | T/C [6]: 96 % of control
